Data taken from patent US20260272908A1 (VANDERBILT UNIVERSITY, priority 2023, published 2026).

Key:
Meta4 organoids = assay: Meta4 dysplastic organoid growth and cell death (organoid diameter, phase-contrast, H&E, live/dead staining); type: cell-based, mouse; conditions: pyrvinium 100 nM, SSTC3 0.2-1 μM, STAT3-IN-1 1 μM, Sttatic 2 μM, 3 days; for cell death: trametinib 1 μM
Description: (§1) All experiments were repeated at least three times.
(§2) All experiments were performed at least in triplicate.

[1] = test system: human pre-cancerous organoid (hPCO) lines; assay: Human precancerous organoid (hPCO) growth and organoid death; conditions: STAT3 inhibitors; for response (growth and survival): pyrvinium-resistant hPCO-31
Description: To establish human pre-cancer organoids (hPCO), fresh tissues were obtained from the gastric cancer patients who underwent curative gastrectomy at SNUH (IRB No. H-1806-166-954).
Meta3, Meta4, and hPCO organoids were cultured in Matrigel (ECM, Sigma) with Mouse or Human IntestiCult medium (StemCell Technology) supplemented with 1% of penicillin/streptomycin (Gibco) in 48-well plates and medium was replaced every 3 days. The organoids were split every 5-7 days before they formed budding structures.
Mouse or human organoids were split and cultured in the Mouse or Human IntestiCult media for 1-2 days until they formed three-dimensional (3D) spherical structures, then the media was switched to media containing either DMSO vehicle or a certain concentration of each drug and cultured for 3 days. The EVOS M7000 inverted microscope were used to obtain phase contrast images of organoids. All experiments were repeated at least three times.
The number and diameters of mouse and human organoids treated with drugs were manually counted and measured at day 0 and 3 or 6 after treatment from four entire well images of each condition at 4× magnification. For counting live or dead cells, organoids were stained with Calcein AM for live cells and EthD-1 for dead cells 3 days after treatment and the number of EthD-1 positive organoids were manually counted from images taken from three wells of each condition at 4× magnification. All experiments were performed at least in triplicate. The mean values from each condition were compared by Student's paired or unpaired t-test using Graphpad Prism. *P<0.05, **P<0.01, ***P<0.001, ****P<0.0001.

Meta3 organoids = assay: Meta3 metaplastic organoid growth and survival (organoid diameter, phase-contrast); type: cell-based, mouse; conditions: STAT3-IN-1 1 μM, Sttatic 2 μM, CPT 5 μM, 3 days
Description: as §1, §2

phospho-ERK (p-ERK) = assay: Western blot for phospho-ERK in Meta3 and Meta4 organoids; type: cell-based, mouse; conditions: Meta4; 3 days
Description: (§3) FIG. 3C-3D show the Western blot analysis for p-STAT3 and p-ERK in Meta3 and Meta4 organoids (FIG. 3C) and ratios of p-STAT3/total STAT3 and p-ERK/total ERK (FIG. 3D). […] FIG. 3F-3G show phase-contrast images of Meta4 organoids treated with DMSO, Pyr (100 nM), STAT3-IN-1 (1 μM), Stattic (2 μM), and Cryptotanshinone (CPT) (5 μM) for 3 days (FIG. 3F), and quantitation of organoid diameters before and after treatment (FIG. 3G). FIG. 3H-3I show phase-contrast images of Meta4 organoids treated with DMSO, trametinib (Tra), STAT3-IN-1, combination of Tra and STAT3-IN-1, and Pyr, for 3 days (FIG. 3H), and quantitation of organoid diameters before and after treatment (FIG. 3I). FIG. 3J-3K show western blot for p-STAT3 and p-ERK after treatment of Tra, Pyr, and SSTC3 (FIG. 3J) and ratios of p-STAT3/t-STAT3 and p-ERK/t-ERK (FIG. 3K). […] Relative quantification of each gene expression level was normalized to GAPDH gene expression. Shading scale represents the mRNA expression values. FIG. 3M show representative mRNA of Pim-1 and Cyclin-B1 after treatment. Mean±standard deviation. […] Scale bar=500 μM.
(§4) Total proteins were extracted from organoids using radioimmunoprecipitation assay buffer (10 mmol/L Tris-HC, pH 7.2, 150 mmol/L NaCl, 5 mmol/L EDTA, 0.1% sodium dodecyl sulfate, 1.0% Triton X-100, 1% deoxycholate) with protease inhibitors. The protein concentration was measured The Bio-Rad Protein Assay (Bio-Rad Laboratories, Hercules, CA). 5 to 10 μg of total protein was loaded onto 12.5% or 10% sodium dodecyl sulfate/polyacrylamide gel electrophoresis (PAGE) and transferred onto polyvinylidene difluoride membranes (Millipore, Billerica, MA). […] After washes with TBS-T, chemiluminescence was detected with an Amersham Imager 680 instrument (GE Healthcare) after 1 mL of the SuperSignal West Femto Maximum Sensitivity Substrate (ThermoFisher) was applied to the membranes.

phospho-STAT3 (p-STAT3) = assay: Western blot for phospho-STAT3 in Meta3 and Meta4 organoids; type: cell-based, mouse; conditions: Meta4; 3 days
Description: as §3, §4

[2] = pyrvinium-sensitive hPCO-2 line

SMILES	organoid size / growth (Meta4 organoids)	cell death (Meta4 organoids)	response (growth and survival) [1]	organoid survival [1, 2]	organoid growth ([1]; pyrvinium-sensitive hPCO-2 line, 6 days)	survival and growth of organoids (Meta3 organoids)	p-ERK levels (phospho-ERK (p-ERK))	phosphorylation of STAT3^Y705 (phospho-STAT3 (p-STAT3))
O=[N+]([O-])c1ccc2c(c1)S(=O)(=O)C=C2 [Sttatic]	induced growth arrest	did not lead to cell death	did not respond	survived until 6 days after the treatment	arrested organoid growth	no influence on the survival and growth	–	–
COc1cc(/C=C/c2ccc(NC(=O)/C=C/c3cc(OC)c(OC)c(OC)c3)cc2)cc(OC)c1 [STAT3-IN-1]	induced growth arrest	did not lead to cell death	did not respond	survived until 6 days after the treatment	–	no influence on the survival and growth	–	–
CN(c1ccc(C(F)(F)F)cc1)S(=O)(=O)c1ccc(C(=O)Nc2nc(-c3ccccn3)cs2)cc1 [SSTC3]	did not cause any growth suppression or cell death	did not cause any growth suppression or cell death	–	–	–	–	did not reduce	did not reduce
